Source: patent US12180215B2, “Substituted pyrrolo[3,4-d]imidazoles as JAK inhibitors” (HENAN MEDINNO PHARMACEUTICAL TECHNOLOGY CO., LTD., priority 2019, dated 2024)

Legend:
TYK2 = molecular target: T1, TYK2 (Homo sapiens, UniProt P29597); assay: TYK2 kinase ADP-Glo assay (Example 60)
T1 sequence (P29597 871-1187 limits assumed): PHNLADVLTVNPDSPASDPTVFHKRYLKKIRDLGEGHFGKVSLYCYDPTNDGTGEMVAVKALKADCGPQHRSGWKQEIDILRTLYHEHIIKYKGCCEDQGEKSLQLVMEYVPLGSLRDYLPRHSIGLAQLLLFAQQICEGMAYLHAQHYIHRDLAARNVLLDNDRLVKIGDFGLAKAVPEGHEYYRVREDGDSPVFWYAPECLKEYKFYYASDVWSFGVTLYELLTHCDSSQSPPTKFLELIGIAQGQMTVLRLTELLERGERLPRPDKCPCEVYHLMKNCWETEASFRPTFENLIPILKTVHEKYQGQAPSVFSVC

JAK2 = JAK2 (Homo sapiens, UniProt O60674); assay: JAK2 kinase ADP-Glo assay (Example 60)
JAK3 = JAK3 (Homo sapiens, UniProt P52333); assay: JAK3 kinase ADP-Glo assay (Example 60)
JAK1 = JAK1 (Homo sapiens, UniProt P23458); assay: JAK1 kinase ADP-Glo assay (Example 60)
JAK1, sequence (P23458 850-1154 limits assumed): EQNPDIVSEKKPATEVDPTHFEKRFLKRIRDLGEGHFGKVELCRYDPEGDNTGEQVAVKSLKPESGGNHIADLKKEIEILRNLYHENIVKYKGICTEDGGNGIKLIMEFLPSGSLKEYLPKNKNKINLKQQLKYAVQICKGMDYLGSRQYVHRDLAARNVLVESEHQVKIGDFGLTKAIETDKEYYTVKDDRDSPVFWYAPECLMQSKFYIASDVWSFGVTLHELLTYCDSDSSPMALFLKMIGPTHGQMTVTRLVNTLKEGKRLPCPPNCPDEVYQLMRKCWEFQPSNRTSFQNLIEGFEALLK

JAK2, sequence (O60674 826-1132 limits assumed): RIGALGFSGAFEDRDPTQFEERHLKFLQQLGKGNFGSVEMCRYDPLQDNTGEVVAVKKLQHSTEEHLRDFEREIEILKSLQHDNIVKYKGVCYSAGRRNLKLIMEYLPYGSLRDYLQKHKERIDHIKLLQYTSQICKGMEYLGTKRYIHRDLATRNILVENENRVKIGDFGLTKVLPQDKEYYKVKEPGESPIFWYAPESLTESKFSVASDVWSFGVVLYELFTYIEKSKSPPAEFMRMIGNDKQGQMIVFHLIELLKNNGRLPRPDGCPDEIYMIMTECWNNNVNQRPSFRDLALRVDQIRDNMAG
JAK3, sequence (P52333 795-1124 limits assumed): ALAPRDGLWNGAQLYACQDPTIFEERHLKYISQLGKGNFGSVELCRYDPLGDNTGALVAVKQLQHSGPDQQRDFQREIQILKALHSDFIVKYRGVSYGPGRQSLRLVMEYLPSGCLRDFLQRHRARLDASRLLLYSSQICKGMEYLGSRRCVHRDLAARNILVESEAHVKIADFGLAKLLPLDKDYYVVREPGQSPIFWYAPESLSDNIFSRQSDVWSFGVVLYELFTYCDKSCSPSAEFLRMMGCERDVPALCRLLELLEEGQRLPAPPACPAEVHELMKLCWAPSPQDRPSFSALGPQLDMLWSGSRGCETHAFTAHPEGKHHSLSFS

Row | IC50 (TYK2) [nM] | IC50 (JAK2) [nM] | IC50 (JAK3) [nM] | IC50 (JAK1) [nM] | Compound
1 | 16.1 | 0.754 | 2.01 | 0.248 | CCc1cc(O)c(F)cc1-c1ccc2c(-c3nc4c([nH]3)CN(C3CCCC3)C4)n[nH]c2c1 [MDI-224, 4-(3-(5-cyclopentyl-1,4,5,6-tetrahydropyrrolo[3,4-d]imidazol-2-yl)-1H-indazol-6-yl)-5-ethyl-2-fluorophenol]
2 | 3.5 | 0.39 | 0.487 | 0.226 | CCc1cc(O)c(F)cc1-c1ccc2c(-c3nc4c([nH]3)CN(C3CCOCC3)C4)n[nH]c2c1 [MDI-225, 5-ethyl-2-fluoro-4-(3-(5-(tetrahydro-2H-pyran-4-yl)-1,4,5,6-tetrahydropyrrolo[3,4-d]imidazol-2-yl)-1H-indazol-6-yl)phenol]
3 | 3.89 | 0.246 | 0.441 | 0.224 | CCC(=O)N1Cc2nc(-c3n[nH]c4cc(-c5cc(F)c(O)cc5CC)ccc34)[nH]c2C1 [MDI-227, 1-(2-(6-(2-ethyl-5-fluoro-4-hydroxyphenyl)-1H-indazol-3-yl)-4,6-dihydropyrrolo[3,4-d]imidazol-5-(1H)-yl)propan-1-one]
4 | 4.76 | 0.355 | 0.565 | 0.398 | CCc1cc(O)c(F)cc1-c1ccc2c(-c3nc4c([nH]3)CN(C(=O)C(C)C)C4)n[nH]c2c1 [MDI-228, 1-(2-(6-(2-ethyl-5-fluoro-4-hydroxyphenyl)-1H-indazol-3-yl)-4,6-dihydropyrrolo[3,4-d]imidazol-5-(1H)-yl)-2-methylpropan-1-one]
5 | 4.71 | 0.356 | 0.481 | 0.753 | CCc1cc(O)c(F)cc1-c1ccc2c(-c3nc4c([nH]3)CN(C(=O)CC3CC3)C4)n[nH]c2c1 [MDI-229, 2-cyclopropyl-1-(2-(6-(2-ethyl-5-fluoro-4-hydroxyphenyl)-1H-indazol-3-yl)-4,6-dihydropyrrolo[3,4-d]imidazol-5-(1H)-yl)ethan-1-one]
6 | 6.57 | 0.555 | 0.821 | 0.819 | CCc1cc(O)c(F)cc1-c1ccc2c(-c3nc4c([nH]3)CN(C(=O)CC(C)C)C4)n[nH]c2c1 [MDI-230, 1-(2-(6-(2-ethyl-5-fluoro-4-hydroxyphenyl)-1H-indazol-3-yl)-4,6-dihydropyrrolo[3,4-d]imidazol-5-(1H)-yl)-3-methylbutan-1-one]
7 | 1.31 | 1.17 | 0.893 | 0.53 | CCc1cc(O)c(F)cc1-c1ccc2c(-c3nc4c([nH]3)CN(C(=O)N3CCCC3)C4)n[nH]c2c1 [MDI-231, (2-(6-(2-ethyl-5-fluoro-4-hydroxyphenyl)-1H-indazol-3-yl)-4,6-dihydropyrrolo[3,4-d]imidazol-5-(1H)-yl)(pyrrolidin-1-yl)ketone]
8 | 2.26 | 1.04 | 0.868 | 0.745 | CCc1cc(O)c(F)cc1-c1ccc2c(-c3nc4c([nH]3)CN(C(=O)N3CCC3)C4)n[nH]c2c1 [MDI-232, Azetidin-1-yl(2-(6-(2-ethyl-5-fluoro-4-hydroxyphenyl)-1H-indazol-3-yl)-4,6-dihydropyrrolo[3,4-d]imidazol-5-(1H)-yl)ketone]
9 | 3.5 | 1.33 | 2.6 | 1.31 | CCc1cc(O)c(F)cc1-c1ccc2c(-c3nc4c([nH]3)CN(C(=O)N3CCCCC3)C4)n[nH]c2c1 [MDI-233, (2-(6-(2-ethyl-5-fluoro-4-hydroxyphenyl)-1H-indazol-3-yl)-4,6-dihydropyrrolo[3,4-d]imidazol-5-(1H)-yl)(piperidin-1-yl)ketone]
10 | 0.438 | 0.737 | 0.375 | 0.206 | CCc1cc(O)c(F)cc1-c1ccc2c(-c3nc4c([nH]3)CN(C(=O)N3CCOCC3)C4)n[nH]c2c1 [MDI-234, (2-(6-(2-ethyl-5-fluoro-4-hydroxyphenyl)-1H-indazol-3-yl)-4,6-dihydropyrrolo[3,4-d]imidazol-5-(1H)-yl)(morpholino)ketone]
11 | 0.142 | 0.166 | 0.183 | 0.0395 | CCc1cc(O)c(F)cc1-c1ccc2c(-c3nc4c([nH]3)CN(C(=O)N3CCN(C)CC3)C4)n[nH]c2c1 [MDI-235, (2-(6-(2-ethyl-5-fluoro-4-hydroxyphenyl)-1H-indazol-3-yl)-4,6-dihydropyrrolo[3,4-d]imidazol-5-(1H)-yl)(4-methylpiperazin-1-yl)ketone]
12 | 0.0954 | 0.329 | 0.141 | 0.0403 | CCc1cc(O)c(F)cc1-c1ccc2c(-c3nc4c([nH]3)CN(C(=O)N3CCN(CC)CC3)C4)n[nH]c2c1 [MDI-236, (2-(6-(2-ethyl-5-fluoro-4-hydroxyphenyl)-1H-indazol-3-yl)-4,6-dihydropyrrolo[3,4-d]imidazol-5-(1H)-yl)(4-ethylpiperazin-1-yl)ketone]
13 | 9.68 | 0.588 | 1.39 | 0.758 | CCc1cc(O)c(F)cc1-c1cnc2c(-c3nc4c([nH]3)CN(C(=O)C3CC3)C4)n[nH]c2c1 [MDI-237, cyclopropyl (2-(6-(2-ethyl-5-fluoro-4-hydroxyphenyl)-1H-pyrazolo[4,3-b]pyridine-3-yl)-4,6-dihydropyrrolo[3,4-d]imidazol-5(1H)-yl)ketone]
14 | 19.2 | 1.2 | 4.94 | 1.15 | CCc1cc(O)c(F)cc1-c1cc(C)c2c(-c3nc4c([nH]3)CN(C(=O)C3CC3)C4)n[nH]c2c1 [MDI-239, cyclopropyl (2-(6-(2-ethyl-5-fluoro-4-hydroxyphenyl)-4-methyl-1H-indazol-3-yl)-4,6-dihydropyrrolo[3,4-d]imidazol-5(1H)-yl)ketone]
15 | 5.34 | 0.842 | 2.02 | 0.45 | CCc1cc(O)c(F)cc1-c1cc(C)c2c(-c3nc4c([nH]3)CN(C(=O)N3CC[C@H](O)C3)C4)n[nH]c2c1 [MDI-240, (S)-(2-(6-(2-ethyl-5-fluoro-4-hydroxyphenyl)-4-methyl-1H-indazol-3-yl)-4,6-dihydropyrrolo[3,4-d]imidazol-5(1H)-yl)(3-hydroxylpyrrolidin-1-yl)ketone]
16 | 583 | 28.6 | 152 | 67.2 | CCc1cc(O)c(F)cc1-c1cc2[nH]nc(-c3nc4c([nH]3)CN(C(=O)C3CC3)C4)c2cn1 [MDI-242, cyclopropyl(2-(6-(2-ethyl-5-fluoro-4-hydroxyphenyl)-1H-pyrazolo[4,3-c]pyridine-3-yl)-4,6-dihydropyrrolo[3,4-d]imidazol-5(1H)-yl)ketone]
17 | 0.167 | 0.499 | 0.269 | 0.118 | CCc1cc(O)c(F)cc1-c1ccc2c(-c3nc4c([nH]3)CN(C(=O)N3CC[C@@H](O)C3)C4)n[nH]c2c1 [MDI-243, (R)-(2-(6-(2-ethyl-5-fluoro-4-hydroxyphenyl)-1H-indazol-3-yl)-4,6-dihydropyrrolo[3,4-d]imidazol-5(1H)-yl)(3-hydroxylpyrrolidin-1-yl)ketone]
18 | 1.31 | 0.915 | 0.55 | 0.248 | CCc1cc(O)c(F)cc1-c1ccc2c(-c3nc4c([nH]3)CN(C(=O)N3CC(O)C3)C4)n[nH]c2c1 [MDI-244, (2-(6-(2-ethyl-5-fluoro-4-hydroxyphenyl)-1H-indazol-3-yl)-4,6-dihydropyrrolo[3,4-d]imidazol-5(1H)-yl)(3-hydroxylazetidin-1-yl)ketone]
19 | 0.365 | 0.648 | 0.306 | 0.178 | CCc1cc(O)c(F)cc1-c1ccc2c(-c3nc4c([nH]3)CN(C(=O)N3CCC(O)CC3)C4)n[nH]c2c1 [MDI-245, (2-(6-(2-ethyl-5-fluoro-4-hydroxyphenyl)-1H-indazol-3-yl)-4,6-dihydropyrrolo[3,4-d]imidazol-5(1H)-yl)(4-hydroxylpiperidin-1-yl)ketone]
20 | 1.52 | 0.973 | 0.709 | 0.241 | CCc1cc(O)c(F)cc1-c1ccc2c(-c3nc4c([nH]3)CN(C(=O)NC)C4)n[nH]c2c1 [MDI-246, 2-(6-(2-ethyl-5-fluoro-4-hydroxyphenyl)-1H-indazol-3-yl)-N-methyl-4,6-dihydropyrrolo[3,4-d]imidazol-5-(1H)-carboxamide]
21 | 2.35 | 1.88 | 1.3 | 0.557 | CCNC(=O)N1Cc2nc(-c3n[nH]c4cc(-c5cc(F)c(O)cc5CC)ccc34)[nH]c2C1 [MDI-247, 2-(6-(2-ethyl-5-fluoro-4-hydroxyphenyl)-1H-indazol-3-yl)-N-ethyl-4,6-dihydropyrrolo[3,4-d]imidazol-5-(1H)-carboxamide]
22 | 0.578 | 0.56 | 0.303 | 0.093 | CCc1cc(O)c(F)cc1-c1ccc2c(-c3nc4c([nH]3)CN(C(=O)NCCO)C4)n[nH]c2c1 [MDI-248, 2-(6-(2-ethyl-5-fluoro-4-hydroxyphenyl)-1H-indazol-3-yl)-N-(2-hydroxylethyl)-4,6-dihydropyrrolo[3,4-d]imidazol-5(1H)-carboxamide]
23 | 1.93 | 0.697 | 0.398 | 0.307 | CCc1cc(O)c(F)cc1-c1ccc2c(-c3nc4c([nH]3)CN(C(=O)N3CC(C#N)C3)C4)n[nH]c2c1 [MDI-249, 1-(2-(6-(2-ethyl-5-fluoro-4-hydroxyphenyl)-1H-indazol-3-yl)-1,4,5,6-tetrahydropyrrolo[3,4-d]imidazol-5-carbonyl)Azetidin-3-nitrile]
